According to patent US20090023186A1, “USE OF VALPROIC ACID FOR ENHANCING PRODUCTION OF RECOMBINANT PROTEINS IN MAMMALIAN CELLS” (EXCELLGENE SA, priority 2007, published 2009):

Experiments:
HEK293E cells [1] = experiment: Influence of temperature on IgG batch titer and comparison with sodium butyrate (Example 2); type: cell-based, Human; conditions: 3 mmol/l sodium butyrate; relative to control = 1; day 5 after transfection
Experimental: (§1) No. 14571C-[…]; Lot No. 6A0093; SAFC Biosciences, Lenexa, Kans., USA, “Ex-Cell” medium; note: “Ex-Cell” medium-as used herein-refers to a medium comprising 4 mmol/l L-glutamine) in a 50-ml filter tube each (TPP AG, Trasadingen, Switzerland; Cat. No. 87050, Lot 20050174). In a separate set, 10 million suspension-adapted CHO DG44 cells were resuspended in 0.5 ml of ProCHO5 serum-free medium with 4 mmol/[…] hypoxanthine and 0.194 g/l thymidine (BioWhittaker (Lonza), Belgium; Cat. No. BE12-[…]; Lot No. 7 MB0040; “ProCHO5” medium; note: “ProCHO5” medium-as used herein-refers to a medium comprising 4 mmol/[…] hypoxanthine and 0.194 g/l thymidine) in a 50-ml filter tube each (TPP AG, Trasadingen, Switzerland; Cat. No. 87050, Lot 20050174). Then 12.5 μg plasmid DNA at a concentration of 1 μg/μl was added in each tube with the following composition 50% (6.25 μg) p-LC (SEQ ID NO: 1) 50% (6.25 μg) p-HC (SEQ ID NO: 3). Plasmid p-LC comprises the genetic information for the production of the light chain of an IgG antibody, plasmid p-HC comprises the genetic information for the production of the heavy chain of an IgG antibody. The particular vector constructs used in the present invention can also be obtained from the inventors. The inventors can be contacted via e-mail at […]. Moreover, commercial services do exist that produce any desired nucleotide sequence even comprising several kilobase pairs including complete expression cassettes in plasmid backgrounds (e.g., Invitrogen, Carlsbad, USA; Geneart, Germany.) Thus, providing the genetic sequence information of the plasmids should enable one of ordinary skill in the art to order the plasmids of the present invention at one of the commercial services listed. After shortly mixing the DNA with the cells by gentle shaking, 25 μg of 25-kd linear polyethyleneimine (“PEI”; Polysciences, Eppelheim, Germany; [2]) were added at a concentration of 1 μg/μl to each of the tubes. After shortly mixing by gentle shaking, the filter tubes containing the cells together with the DNA and PEI were transferred into an orbital shaker (Kühner Shaker Cabinet ISF-4-W, “Kühner shaker”, Kühner AG, Birsfelden, Switzerland), and the cells were incubated for 4 hours at 37° C. in a 5% CO2 atmosphere under shaking at 180 rpm. After that time, 4.5 ml of Ex-Cell medium were added to each of the filter tubes containing HEK 293 cells and 4.5 ml of Pro-CHO5 were added to each of the filter tubes containing CHO DG44 cells. […] No. […] Sigma-Aldrich Chemie GmbH, Industriestrasse 25, CH-9471 Buchs SG) was added to the corresponding tubes at the corresponding final concentrations. The cells then were returned into the Kühner shaker. Half the tubes were incubated at 37° C. in a 5% CO2 atmosphere under shaking at 180 rpm, the other half was incubated at 31° C. […] The ELISA was performed as published in prior art. In short, Goat anti-human kappa light chain IgG (Biosource) was used for coating the ELISA-plates, and with AP-conjugated goat anti-human gamma chain IgG (Biosource) the synthesized IgG1 was detected. NPP was used as a substrate for the alkaline phosphatase. Absorption was measured at 405 nm against 490 nm using a microplate reader (SPECTRAmaxTM340; Molecular Devices, Palo Alto, Calif., USA).

CHO DG44 cells [2] = experiment: as above; type: cell-based, Chinese Hamster; conditions: 3 mmol/l sodium butyrate; relative to control = 1; day 5 after transfection
Experimental: as §1

HEK293E cells [3] = experiment: Preferred embodiment: transient IgG expression with p18 and p21 co-transfection, batch titer by ELISA; type: cell-based, Human
Experimental: 20 million suspension-adapted HEK293E cells were resuspended in 1 ml of Ex-Cell 293 HEK 293 serum-free medium with 4 mmol/l L-glutamine (Cat. No. 14571C-[…]; Lot No. 6A0093; SAFC Biosciences, Lenexa, Kans., USA, “Ex-Cell” medium; note: “Ex-Cell” medium-as used herein-refers to a medium comprising 4 mmol/l L-glutamine) in a 50-ml filter tube each (TPP AG, Trasadingen, Switzerland; Cat. No. 87050, Lot 20050174). Then 50 μg plasmid DNA at a concentration of 1 μg/μl was added in each tube with the following composition […] Plasmid p-LC comprises the genetic information for the production of the light chain of an IgG antibody, plasmid p-HC comprises the genetic information for the production of the heavy chain of an IgG antibody, plasmid p-p18 comprises the genetic information for the protein p18, and plasmid p-p21 comprises the genetic information for the protein p21. The particular vector constructs used in the present invention can also be obtained from the inventors. The inventors can be contacted via e-mail at […]. Moreover, commercial services do exist that produce any desired nucleotide sequence even comprising several kilobase pairs including complete expression cassettes in plasmid backgrounds (e.g., Invitrogen, Carlsbad, USA; Geneart, Germany.) Thus, providing the genetic sequence information of the plasmids should enable one of ordinary skill in the art to order the plasmids of the present invention at one of the commercial services listed. After shortly mixing the DNA with the cells by gentle shaking, 100 μg of 25-kd linear polyethyleneimine (“PEI”; Polysciences, Eppelheim, Germany; [2]) were added at a concentration of 1 μg/μl to each of the tubes. After shortly mixing by gentle shaking, the filter tubes containing the cells together with the DNA and PEI were transferred into an orbital shaker (Kühner Shaker Cabinet ISF-4-W, “Kühner shaker”, Kühner AG, Birsfelden, Switzerland), and the cells were incubated for 3 hours at 37° C. in a 5% CO2 atmosphere under shaking at 180 rpm. After that time, 4 ml of Ex-Cell medium were added to each of the filter tubes. […] No. B5887-1G; Sigma-Aldrich Chemie GmbH, Industriestrasse 25, CH-9471 Buchs SG) was added to the corresponding tubes at the corresponding final concentrations. […] The ELISA was performed as published in prior art. In short, Goat anti-human kappa light chain IgG (Biosource) was used for coating the ELISA-plates, and with AP-conjugated goat anti-human gamma chain IgG (Biosource) the synthesized IgG1 was detected. NPP was used as a substrate for the alkaline phosphatase. Absorption was measured at 405 nm against 490 nm using a microplate reader (SPECTRAmaxTM340; Molecular Devices, Palo Alto, Calif., USA).

CHO DG44 cells [4] = experiment: Combination with IDMTs, IgG batch yield by ELISA (Example 6); type: cell-based, Chinese Hamster; conditions: day 5; for interaction with VPA in increasing batch yield: CHO cells; for Fold increase in batch yield over control: no addition = 100%
Experimental: 10 million suspension-adapted HEK293E cells were resuspended in 0.5 ml of Ex-Cell 293 HEK 293 serum-free medium with 4 mmol/l L-glutamine (Cat. No. 14571C-[…]; Lot No. 6A0093; SAFC Biosciences, Lenexa, Kans., USA, “Ex-Cell” medium; note: “Ex-Cell” medium-as used herein-refers to a medium comprising 4 mmol/l L-glutamine) in a 50-ml filter tube each (TPP AG, Trasadingen, Switzerland; Cat. No. 87050, Lot 20050174). In a separate set, 10 million suspension-adapted CHO DG44 cells were resuspended in 0.5 ml of ProCHO5 serum-free medium with 4 mmol/[…] hypoxanthine and 0.194 g/l thymidine (BioWhittaker (Lonza), Belgium; Cat. No. BE12-[…]; Lot No. 7MB0040; “ProCHO5” medium; note: “ProCHO5” medium-as used herein-refers to a medium comprising 4 mmol/[…] hypoxanthine and 0.194 g/l thymidine) in a 50-ml filter tube each (TPP AG, Trasadingen, Switzerland; Cat. No. 87050, Lot 20050174). Then 12.5 μg plasmid DNA at a concentration of 1 μg/μl was added in each tube with the following composition 50% (6.25 μg) p-LC (SEQ ID NO: 1) 50% (6.25 μg) p-HC (SEQ ID NO: 3). Plasmid p-LC comprises the genetic information for the production of the light chain of an IgG antibody, plasmid p-HC comprises the genetic information for the production of the heavy chain of an IgG antibody. The particular vector constructs used in the present invention can also be obtained from the inventors. The inventors can be contacted via e-mail at […]. Moreover, commercial services do exist that produce any desired nucleotide sequence even comprising several kilobase pairs including complete expression cassettes in plasmid backgrounds (e.g., Invitrogen, Carlsbad, USA; Geneart, Germany.) Thus, providing the genetic sequence information of the plasmids should enable one of ordinary skill in the art to order the plasmids of the present invention at one of the commercial services listed. After shortly mixing the DNA with the cells by gentle shaking, 25 μg of 25-kd linear polyethyleneimine (“PEI”; Polysciences, Eppelheim, Germany; [2]) were added at a concentration of 1 μg/μl to each of the tubes. After shortly mixing by gentle shaking, the filter tubes containing the cells together with the DNA and PEI were transferred into an orbital shaker (Kühner Shaker Cabinet ISF-4-W, “Kühner shaker”, Kühner AG, Birsfelden, Switzerland), and the cells were incubated for 4 hours at 37° C. in a 5% CO2 atmosphere under shaking at 180 rpm. After that time, 4.5 ml of Ex-Cell medium were added to each of the filter tubes containing HEK 293 cells and 4.5 ml of Pro-CHO5 were added to each of the filter tubes containing CHO DG44 cells. Then, valproic acid was added to each of the tubes at the corresponding final concentration. In addition, the following chemicals were added to the corresponding tubes at a final concentration of: […] Azacytidine was purchased from Sigma-Aldrich Chemie GmbH, Industriestrasse 25, CH-9471 Buchs SG, Catalog Number A1287-1 VL. RG108 was purchased from Sigma-Aldrich Chemie GmbH, Industriestrasse 25, CH-9471 Buchs SG, Catalog Number R8279-10MG. The cells then were returned into the Kuhner shaker and incubated at 37° C. in a 5% CO2 atmosphere under shaking at 180 rpm. […] In short, Goat anti-human kappa light chain IgG (Biosource) was used for coating the ELISA-plates, and with AP-conjugated goat anti-human gamma chain IgG (Biosource) the synthesized IgG1 was detected. […] Absorption was measured at 405 nm against 490 nm using a microplate reader (SPECTRAmaxTM340; Molecular Devices, Palo Alto, Calif., USA).

HEK293E cells [5] = experiment: as above; type: cell-based, Human; conditions: no addition = 100%, day 5
Experimental: 10 million suspension-adapted HEK293E cells were resuspended in 0.5 ml of Ex-Cell 293 HEK 293 serum-free medium with 4 mmol/l L-glutamine (Cat. No. 14571C-[…]; Lot No. 6A0093; SAFC Biosciences, Lenexa, Kans., USA, “Ex-Cell” medium; note: “Ex-Cell” medium-as used herein-refers to a medium comprising 4 mmol/l L-glutamine) in a 50-ml filter tube each (TPP AG, Trasadingen, Switzerland; Cat. No. 87050, Lot 20050174). In a separate set, 10 million suspension-adapted CHO DG44 cells were resuspended in 0.5 ml of ProCHO5 serum-free medium with 4 mmol/[…] hypoxanthine and 0.194 g/l thymidine (BioWhittaker (Lonza), Belgium; Cat. No. BE12-[…]; Lot No. 7MB0040; “ProCHO5” medium; note: “ProCHO5” medium-as used herein-refers to a medium comprising 4 mmol/[…] hypoxanthine and 0.194 g/l thymidine) in a 50-ml filter tube each (TPP AG, Trasadingen, Switzerland; Cat. No. 87050, Lot 20050174). Then 12.5 μg plasmid DNA at a concentration of 1 μg/μl was added in each tube with the following composition 50% (6.25 μg) p-LC (SEQ ID NO: 1) 50% (6.25 μg) p-HC (SEQ ID NO: 3). Plasmid p-LC comprises the genetic information for the production of the light chain of an IgG antibody, plasmid p-HC comprises the genetic information for the production of the heavy chain of an IgG antibody. The particular vector constructs used in the present invention can also be obtained from the inventors. The inventors can be contacted via e-mail at […]. […] In short, Goat anti-human kappa light chain IgG (Biosource) was used for coating the ELISA-plates, and with AP-conjugated goat anti-human gamma chain IgG (Biosource) the synthesized IgG1 was detected. […] Absorption was measured at 405 nm against 490 nm using a microplate reader (SPECTRAmaxTM340; Molecular Devices, Palo Alto, Calif., USA).

SMILES	Batch titer increase at 31° C. (HEK293E cells [1])	Batch titer increase at 37° C. (HEK293E cells [1])	Batch titer increase at 31° C. (CHO DG44 cells [2])	Batch titer increase at 37° C. (CHO DG44 cells [2])	Batch titer (HEK293E cells [3]; 3 mmol/l sodium butyrate, IgG with p18 and p21, day 14 after transfection) [mg/L]	Fold increase over control (HEK293E cells [3]; 3 mmol/l sodium butyrate, day 14 after transfection) [fold]	optimal concentration (HEK293E cells [3]; in combination with HEK293E cells) [mmol/L]	interaction with VPA in increasing batch yield (CHO DG44 cells [4])	Fold increase in batch yield over control (CHO DG44 cells [4]; RG108 60 μmol/l)	Fold increase in batch yield over control (HEK293E cells [5]; RG108 8 μmol/l)	Fold increase in batch yield over control (CHO DG44 cells [4]; Azacytidine 4 μmol/l)	Fold increase in batch yield over control (HEK293E cells [5]; Azacytidine 6 μmol/l)
CCCC(=O)[O-].[Na+] [sodium butyrate]	4.8 ± 0.4	4.8 ± 0.4	1.3 ± 0.1	1.9 ± 0.1	528 ± 42	7.2	3	–	–	–	–	–
O=C(O)C(Cc1c[nH]c2ccccc12)N1C(=O)c2ccccc2C1=O (stereo not shown) [RG108]	–	–	–	–	–	–	–	act synergistically together with VPA	170% ± 15%	150% ± 20%	–	–
Nc1ncn([C@@H]2O[C@H](CO)[C@@H](O)[C@H]2O)c(=O)n1 [Azacytidine]	–	–	–	–	–	–	–	act synergistically together with VPA	–	–	160% ± 10%	160% ± 15%
